Source: paper PMC6556873, “Rapid Covalent-Probe Discovery by Electrophile-Fragment Screening” (Journal of the American Chemical Society, 2019)
Read-outs that look alike come from different tables or passages of the source.

How the values were obtained:
[1] = in vitro; set-up: species or system CCD841, HEK293; conditions: human, hb2 cells, read-out: HB-2 Cells Viability (%)
[2] = target: T1, OTUB2 (OTUB2A) (Homo sapiens, UniProt Q96DC9); set-up: Intact protein LC/MS covalent labelling, fragments in pools of five, 200 uM each, 4 °C; conditions: 24 h, 4 °C, pool of five; 200 µM; covalent
T1 construct: full length residues 1-234, E. coli BL21(DE3)-R3, His tag removed by TEV, construct 27312 Da
T1 sequence (Q96DC9 1-234): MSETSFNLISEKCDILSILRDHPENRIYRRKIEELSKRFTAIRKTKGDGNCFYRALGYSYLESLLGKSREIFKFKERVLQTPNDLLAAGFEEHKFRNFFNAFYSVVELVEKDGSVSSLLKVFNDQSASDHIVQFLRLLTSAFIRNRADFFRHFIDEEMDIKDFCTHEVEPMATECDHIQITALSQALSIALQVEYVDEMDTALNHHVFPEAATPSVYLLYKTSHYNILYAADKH

[3] = target: T2, BSA (Bos taurus, UniProt P02769); set-up: Intact protein LC/MS covalent labelling, fragments in pools of five, 200 uM each, 4 °C; conditions: 24 h, 4 °C, pool of five; 200 µM; covalent
T2 construct: gene ALB
T2 sequence (P02769 whole entry, the tested form may be a part): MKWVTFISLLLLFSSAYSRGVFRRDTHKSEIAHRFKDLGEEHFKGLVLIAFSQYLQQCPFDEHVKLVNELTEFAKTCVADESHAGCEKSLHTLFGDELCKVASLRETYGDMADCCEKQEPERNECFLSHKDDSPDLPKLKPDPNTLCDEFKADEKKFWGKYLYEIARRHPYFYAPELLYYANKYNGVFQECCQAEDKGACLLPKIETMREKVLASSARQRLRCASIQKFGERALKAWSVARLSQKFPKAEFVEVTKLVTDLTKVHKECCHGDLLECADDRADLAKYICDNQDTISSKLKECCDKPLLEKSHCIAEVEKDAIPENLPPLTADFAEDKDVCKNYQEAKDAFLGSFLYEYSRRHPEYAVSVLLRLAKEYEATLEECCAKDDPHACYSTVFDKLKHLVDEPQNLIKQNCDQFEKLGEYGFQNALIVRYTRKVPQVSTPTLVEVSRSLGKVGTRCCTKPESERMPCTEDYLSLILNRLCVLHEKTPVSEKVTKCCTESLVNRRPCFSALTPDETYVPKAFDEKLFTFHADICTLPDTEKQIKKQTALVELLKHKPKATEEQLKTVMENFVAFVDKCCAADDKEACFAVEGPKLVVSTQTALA

[4] = target: T3, NUDT7 (Homo sapiens, UniProt P0C024); set-up: Intact protein LC/MS covalent labelling, fragments in pools of five, 200 uM each, 4 °C; conditions: 24 h, 4 °C, pool of five; 200 µM; covalent
T3 construct: residues 14-235, E. coli, pNIC28-Bsa4, N-terminal His6 tag removed by TEV, construct 26672 Da
T3 sequence (P0C024 14-235): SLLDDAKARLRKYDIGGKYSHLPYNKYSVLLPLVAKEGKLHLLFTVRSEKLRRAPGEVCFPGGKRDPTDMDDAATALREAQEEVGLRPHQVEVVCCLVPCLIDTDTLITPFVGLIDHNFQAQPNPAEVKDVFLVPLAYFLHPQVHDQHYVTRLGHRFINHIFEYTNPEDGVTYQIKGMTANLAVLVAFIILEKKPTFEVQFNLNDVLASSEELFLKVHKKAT

[5] = target: T4, PCAF (Homo sapiens, UniProt Q92831); set-up: Intact protein LC/MS covalent labelling, fragments in pools of five, 200 uM each, 4 °C; conditions: 24 h, 4 °C, pool of five; 200 µM; covalent
T4 construct: gene KAT2B
T4 sequence (Q92831 whole entry, the tested form may be a part): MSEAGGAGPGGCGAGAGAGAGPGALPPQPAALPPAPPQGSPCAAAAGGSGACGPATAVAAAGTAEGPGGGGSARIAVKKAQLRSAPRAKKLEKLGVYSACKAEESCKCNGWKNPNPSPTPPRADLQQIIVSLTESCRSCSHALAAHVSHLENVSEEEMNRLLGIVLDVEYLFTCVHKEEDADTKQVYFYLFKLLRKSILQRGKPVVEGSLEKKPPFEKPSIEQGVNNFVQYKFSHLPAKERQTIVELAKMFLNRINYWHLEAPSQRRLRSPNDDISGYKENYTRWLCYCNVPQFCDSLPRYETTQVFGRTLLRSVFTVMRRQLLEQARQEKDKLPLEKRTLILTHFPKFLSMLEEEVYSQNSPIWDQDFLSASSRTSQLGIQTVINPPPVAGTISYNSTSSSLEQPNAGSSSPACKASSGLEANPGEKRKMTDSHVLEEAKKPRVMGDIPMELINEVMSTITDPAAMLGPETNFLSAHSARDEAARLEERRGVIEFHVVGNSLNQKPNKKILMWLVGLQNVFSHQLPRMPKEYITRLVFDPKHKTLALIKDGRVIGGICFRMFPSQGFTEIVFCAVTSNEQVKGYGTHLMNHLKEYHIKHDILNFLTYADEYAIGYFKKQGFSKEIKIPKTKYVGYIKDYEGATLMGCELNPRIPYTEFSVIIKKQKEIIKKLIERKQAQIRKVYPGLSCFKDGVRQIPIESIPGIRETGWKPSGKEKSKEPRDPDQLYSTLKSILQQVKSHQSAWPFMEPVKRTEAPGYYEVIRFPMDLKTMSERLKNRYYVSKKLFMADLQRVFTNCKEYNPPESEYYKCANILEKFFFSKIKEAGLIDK

[6] = target: T5, NNMT (hNNMT) (Homo sapiens, UniProt P40261); set-up: Intact protein LC/MS covalent labelling, fragments in pools of five, 200 uM each, 4 °C; conditions: 24 h, 4 °C, pool of five; 200 µM; covalent
T5 construct: wild type, N-terminal His6 tag kept (no cleavage described), E. coli, construct 31248 Da
T5 sequence (P40261 1-264): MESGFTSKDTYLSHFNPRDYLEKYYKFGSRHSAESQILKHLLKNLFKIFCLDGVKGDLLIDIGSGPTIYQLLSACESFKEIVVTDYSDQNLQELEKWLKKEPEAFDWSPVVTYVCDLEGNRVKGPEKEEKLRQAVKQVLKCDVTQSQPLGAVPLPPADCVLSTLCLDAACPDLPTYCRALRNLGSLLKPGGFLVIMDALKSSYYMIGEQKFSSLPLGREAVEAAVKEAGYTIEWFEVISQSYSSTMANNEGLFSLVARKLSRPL

[7] = in vitro; set-up: species or system HB2, CCD841; conditions: human, hek293 cells
[8] = in vitro; set-up: species or system HB2, HEK293; conditions: human, ccd841 cells

SMILES | viability at 48 h, 10 µM [1] | OTUB2 [2] | BSA [3] | NUDT7 [4] | PCAF [5] | NNMT [6] | viability at 48 h, 10 µM [7] | viability at 48 h, 10 µM [8]
O=C(CCl)N1CCCC1=O [PCM-0102982] | 111% | 0 | 0 | 0 | 0 | 0 | 114% | 101%
C=CC(=O)N(C)C1CCCc2nc(CC)sc21 (stereo not shown) [PCM-0102483] | 98.1% | 0 | 0 | 0 | 0 | 0 | 97.3% | 103%
CN(Cc1ccc2c(c1)OCCO2)C(=O)CCl [PCM-0102958] | 74.4% | 0.09 | 0 | 0.27 | 0 | 0 | 52% | 81%
CN(Cc1ccccc1)C(=O)CCl [PCM-0102984] | 78.6% | 0 | 0 | 0.11 | 0 | 0 | 55.2% | 91.6%
O=C(CCl)Nc1ccon1 [PCM-0103077] | 77.3% | 0.3 | 0 | 0 | 0 | 0 | 64.8% | 61.1%
Cc1ccc(NC(=O)CCl)cc1C [PCM-0102339] | 5.2% | 0.82 | 0 | 0.18 | 0 | 0.7 | 1.5% | 34.9%
C=CC(=O)NCC1=CS(=O)(=O)c2ccccc21 [PCM-0102563] | 102% | 0.04 | 0 | 0 | 0 | 0.07 | 82.9% | 110%
O=C(CCl)Nc1nc(-c2cccs2)cs1 [PCM-0102784] | 39.8% | 0.07 | 0 | 0.77 | 0 | 0.71 | 41.3% | 84.9%
C=CC(=O)N1CCCc2c([nH]c3c(F)cccc23)C1 [PCM-0102767] | 89.2% | 0 | 0.1 | 0 | 0 | 0 | 96% | 96.6%
C=CC(=O)N1CCC2(CC1)CCS(=O)(=O)CC2 [PCM-0102559] | 105% | 0 | 0.12 | 0 | 0 | 0 | 113% | 113%
O=C(CCl)NCC1CCC1 [PCM-0103065] | 104% | 0 | 0 | 0 | 0 | 0 | 104% | 108%
O=C(CCl)N=c1sccn1Cc1cccc2ccccc12 [PCM-0102842] | 8.4% | 0 | 0 | 0 | 0 | 0 | 5.2% | 4.2%
Cc1cccc(CNC(=O)CCl)c1 [PCM-0102821] | 99.7% | 0.86 | 0 | 0 | 0 | 0.29 | 87.5% | 80.7%
O=C(CCl)NC(=O)Cc1ccccc1 [PCM-0102902] | 104% | 0 | 0 | 0 | 0 | 0 | 116% | 117%
C=CC(=O)Nc1cc(CC(C)(C)C)nn1C [PCM-0102686] | 102% | 0 | 0 | 0.15 | 0 | 0.12 | 75.3% | 144%
C=CC(=O)N1CCCC(n2nc(C)nc2C)C1 (stereo not shown) [PCM-0102479] | 101% | 0 | 0 | 0 | 0 | 0 | 98.5% | 111%
C=CC(=O)N1CC=C(C(F)(F)F)CC1 [PCM-0102685] | 103% | 0 | 0 | 0 | 0 | 0.17 | 98% | 105%
O=C(CCl)NC1CCCC(C(F)(F)F)C1 (stereo not shown) [PCM-0102862] | 95% | 0.14 | 0 | 0 | 0 | 0.29 | 84% | 106%
Cc1ccccc1C(C)NC(=O)CCl (stereo not shown) [PCM-0102390] | 92.8% | 0.26 | 0 | 0.1 | 0 | 0.26 | 75.8% | 71.4%
C=CC(=O)N1CCc2ccccc21 [PCM-0102732] | 93.4% | 0 | 0 | 0 | 0 | 0.22 | 72.5% | 105%
